The values that follow come from US20250084041A1, “ANTIMICROBIAL COMPOUNDS AND METHODS” (Curza Global, LLC, priority 2021, published 2025).

Where a name gives a salt, the structure may show the parent alone.

The subject of one experiment is S. aureus (Sa). Put plainly: Broth microdilution MIC, S. aureus. The class given is cell-based. Particulars: Staphylococcus aureus, read-out: Sa + bicarb 25 (MIC). In short, it runs like this:
(§1)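 MIC values come from a slightly modified CLSI broth microdilution, with eight two-fold compound dilutions tested in triplicate and 5×10^4 CFU/well. Growth medium was cation-adjusted Mueller-Hinton broth, alone or with 25 mM sodium bicarbonate or 0-50% heat-inactivated human serum.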

The test system of the next experiment is E. coli (Ec). Put plainly: Broth microdilution MIC, E. coli. The class given is cell-based. Particulars: Escherichia coli, read-out: E. coli + bicarb 25 (MIC). The method, boiled down:
as §1

For the next experiment, the system named is P. aeruginosa (Pa). In words: Broth microdilution MIC, P. aeruginosa. In kind it is cell-based. Particulars: Pseudomonas aeruginosa, read-out: Pa + bicarb 25 (MIC). The method, boiled down: as §1
On the technique in general: In broth dilution the organism is exposed to a series of concentrations in liquid medium.

In a further experiment the test system is A. baumannii (Ab). In words: Broth microdilution MIC, A. baumannii. The class given is cell-based. Particulars: Acinetobacter baumannii, read-out: Ab + bicarb 25 (MIC). The method, boiled down:
as §1

The next experiment concerns E. faecalis (Ef). In words: Broth microdilution MIC, E. faecalis. In kind it is cell-based. Particulars: Enterococcus faecalis, read-out: Ef + bicarb 25 (MIC). In short, it runs like this:
as §1

A further experiment has as its system E. coli S30 extract. In words: E. coli S30 extract: inhibition of bacterial protein synthesis (luciferase). The class given is biochemical. Particulars: 37° C. 1 hour. In short, it runs like this:
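Coupled transcription-translation in E. coli S30 extract, programmed with pBESTluc plasmid, was run with 8-point 2-fold compound dilutions for 1 h at 37 °C. After a cold stop, luciferase luminescence was read and percent inhibition calculated against no-inhibitor controls.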

Experiment [1] has as its target Rabbit Reticulocyte Lysate. Put plainly: Rabbit Reticulocyte Lysate: inhibition of eukaryotic protein synthesis (luciferase). In kind it is biochemical. Particulars: 30° C. 90 minutes, read-out: Retic. IC50. In short, it runs like this: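 Nuclease-treated rabbit reticulocyte lysate translating luciferase control RNA with complete amino acids; compounds in 8-point 2-fold dilutions, 90 min at 30° C. Luminescence read after luciferase reagent; % inhibition versus water (no-inhibitor) control, no-RNA wells as background.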

The term MIC denotes the lowest concentration found to suppress growth. What is called IC50 is the concentration that inhibits the measured activity by half.

For `CC(C)(N)C(=O)N1CCN(C(=O)Nc2ccn([C@H]3CC[C@H](CN[C@H]4CC[C@@H](N)CC4)CC3)c(=O)n2)CC1` [Compound 17, 4-(2-Amino-2-methylpropanoyl)-N-(1-(trans-4-(((cis-4-aminocyclohexyl)amino)methyl)cyclohexyl)-2-oxo-1,2-dihydropyrimidin-4-yl)piperazine-1-carboxamide hydrochloride salt], the MIC is less than 8 µg/mL with S. aureus (Sa); less than 8 µg/mL in the experiment on E. coli (Ec); more than 32 µg/mL with P. aeruginosa (Pa); more than 32 µg/mL in the experiment on A. baumannii (Ab); less than 8 µg/mL in the experiment with E. faecalis (Ef). Besides, the IC50 in the experiment on E. coli S30 extract is less than 500 nM; in experiment [1], not below 1000 nM.
With `CC(C)(N)C(=O)N1CCN(C(=O)Nc2ccn([C@H]3CC[C@H](CN[C@H]4CC[C@H](N)CC4)CC3)c(=O)n2)CC1` [Compound 18, 4-(2-Amino-2-methylpropanoyl)-N-(1-(trans-4-(((trans-4-aminocyclohexyl)amino)methyl)cyclohexyl)-2-oxo-1,2-dihydropyrimidin-4-yl)piperazine-1-carboxamide hydrochloride salt], the minimal inhibitory concentration (MIC) in the experiment with S. aureus (Sa) is less than 8 µg/mL; in the experiment on E. coli (Ec) it was less than 8 µg/mL; with P. aeruginosa (Pa) it was more than 32 µg/mL; in the experiment on A. baumannii (Ab) it was more than 32 µg/mL; in the experiment on E. faecalis (Ef), 8 to 32 µg/mL. Besides, the IC50 in the experiment on E. coli S30 extract was less than 500 nM; in experiment [1] it was not below 1000 nM.
`CN(C[C@H]1CC[C@H](n2ccc(NC(=O)N3CCN(C(=O)C(C)(C)N)CC3)nc2=O)CC1)[C@H]1CC[C@H](N)CC1` [Compound 19, 4-(2-Amino-2-methylpropanoyl)-N-(1-(trans-4-(((trans-4-aminocyclohexyl)(methyl)amino)methyl)cyclohexyl)-2-oxo-1,2-dihydropyrimidin-4-yl)piperazine-1-carboxamide hydrochloride salt]: the MIC in the experiment on S. aureus (Sa) was less than 8 µg/mL; in the experiment on E. coli (Ec), less than 8 µg/mL; in the experiment with P. aeruginosa (Pa) it was more than 32 µg/mL; in the experiment with A. baumannii (Ab), 8 to 32 µg/mL; with E. faecalis (Ef) it was less than 8 µg/mL. The IC50 with E. coli S30 extract was less than 500 nM; in experiment [1] it was not below 1000 nM.
For the compound `CC(C)(N)C(=O)N1CCN(C(=O)Nc2ccn([C@H]3CC[C@H](CN4CCC5(CC4)CC(N)C5)CC3)c(=O)n2)CC1` [Compound 20, 4-(2-Amino-2-methylpropanoyl)-N-(1-(trans-4-((2-amino-7-azaspiro[3.5]nonan-7-yl)methyl)cyclohexyl)-2-oxo-1,2-dihydropyrimidin-4-yl)piperazine-1-carboxamide hydrochloride salt], the MIC was less than 8 µg/mL in the experiment with S. aureus (Sa); less than 8 µg/mL with E. coli (Ec); 8 to 32 µg/mL with P. aeruginosa (Pa); less than 8 µg/mL in the experiment on A. baumannii (Ab); less than 8 µg/mL in the experiment with E. faecalis (Ef). Also, the concentration for half-maximal inhibition (IC50) is less than 500 nM with E. coli S30 extract and not below 1000 nM in experiment [1].
Take `CCN(C[C@H]1CC[C@H](n2ccc(NC(=O)N3CCN(C(=O)C(C)(C)N)CC3)nc2=O)CC1)[C@H]1CC[C@H](N)CC1` [Compound 21, 4-(2-Amino-2-methylpropanoyl)-N-(1-(trans-4-(((trans-4-aminocyclohexyl)(ethyl)amino)methyl)cyclohexyl)-2-oxo-1,2-dihydropyrimidin-4-yl)piperazine-1-carboxamide hydrochloride salt]: the MIC in the experiment on S. aureus (Sa) is less than 8 µg/mL; in the experiment with E. coli (Ec), less than 8 µg/mL; in the experiment with P. aeruginosa (Pa), 8 to 32 µg/mL; in the experiment with A. baumannii (Ab) it was 8 to 32 µg/mL; with E. faecalis (Ef), less than 8 µg/mL. In addition, the IC50 in the experiment with E. coli S30 extract is less than 500 nM; in experiment [1], not below 1000 nM.
Turning to `CC(C)(N)C(=O)N1CCN(C(=O)Nc2ccn(C3=CCC(CN4CCC5(CC4)CC(N)C5)CC3)c(=O)n2)CC1` (stereo not shown) [Compound 25, 4-(2-Amino-2-methylpropanoyl)-N-(1-(4-((2-amino-7-azaspiro[3.5]nonan-7-yl)methyl)cyclohexan-1-en-1-yl)-2-oxo-1,2-dihydropyrimidin-4-yl)piperazine-1-carboxamide hydrochloride salt], the MIC in the experiment on S. aureus (Sa) is less than 8 µg/mL; with E. coli (Ec), less than 8 µg/mL; in the experiment on P. aeruginosa (Pa) it was 8 to 32 µg/mL; in the experiment with A. baumannii (Ab), less than 8 µg/mL; in the experiment with E. faecalis (Ef), less than 8 µg/mL. Besides, the IC50 with E. coli S30 extract was less than 500 nM; in experiment [1], not below 1000 nM.
Regarding `CC(C)(N)C(=O)N1CCN(C(=O)Nc2ccn(C3=CCC(CN4CCC(CCN)CC4)CC3)c(=O)n2)CC1` (stereo not shown) [Compound 26, 4-(2-Amino-2-methylpropanoyl)-N-(1-(4-((4-(2-aminoethyl)piperidin-1-yl)methyl)cyclohex-1-en-1-yl)-2-oxo-1,2-dihydropyrimidin-4-yl)piperazine-1-carboxamide hydrochloride salt], the MIC with S. aureus (Sa) was less than 8 µg/mL; in the experiment with E. coli (Ec), less than 8 µg/mL; in the experiment on P. aeruginosa (Pa), more than 32 µg/mL; in the experiment on A. baumannii (Ab), more than 32 µg/mL; in the experiment with E. faecalis (Ef), less than 8 µg/mL. In addition, the values for the IC50 (in the experiment on E. coli S30 extract; in experiment [1]) were less than 500 nM and not below 1000 nM, respectively.
`CN(CC1CC=C(n2ccc(NC(=O)N3CCN(C(=O)C(C)(C)N)CC3)nc2=O)CC1)[C@H]1CC[C@H](N)CC1` (stereo partly drawn) [Compound 30, trans-4-(2-Amino-2-methylpropanoyl)-N-(1-(4-(((4-aminocyclohexyl)(methyl)amino)methyl)cyclohex-1-en-1-yl)-2-oxo-1,2-dihydropyrimidin-4-yl)piperazine-1-carboxamide hydrochloride salt]: the minimum inhibitory concentration (MIC) with S. aureus (Sa) is less than 8 µg/mL; in the experiment on E. coli (Ec), less than 8 µg/mL; in the experiment with P. aeruginosa (Pa), more than 32 µg/mL; in the experiment on A. baumannii (Ab), more than 32 µg/mL; with E. faecalis (Ef), 8 to 32 µg/mL. Moreover, the IC50 with E. coli S30 extract was less than 500 nM; in experiment [1], not below 1000 nM.
For `CC(C)(N)C(=O)N1CCN(C(=O)Nc2ccn(C3CCC(CN[C@H]4C[C@H](N)C4)CC3)c(=O)n2)CC1` (stereo partly drawn) [Compound 43, trans-4-(2-Amino-2-methylpropanoyl)-N-(1-(4-(((3-aminocyclobutyl)amino)methyl)cyclohexyl)-2-oxo-1,2-dihydropyrimidin-4-yl)piperazine-1-carboxamide hydrochloride salt], the MIC in the experiment with S. aureus (Sa) was less than 8 µg/mL; with E. coli (Ec) it was less than 8 µg/mL; in the experiment on P. aeruginosa (Pa), more than 32 µg/mL; in the experiment on A. baumannii (Ab) it was more than 32 µg/mL; in the experiment on E. faecalis (Ef) it was 8 to 32 µg/mL. The IC50 with E. coli S30 extract is less than 500 nM; in experiment [1] it was not below 1000 nM.
For `CC(C)(N)C(=O)N1CCN(C(=O)Nc2ccn(C3CCC(CN[C@H]4C[C@@H](N)C4)CC3)c(=O)n2)CC1` (stereo partly drawn) [Compound 44, cis-4-(2-Amino-2-methylpropanoyl)-N-(1-(4-(((3-aminocyclobutyl)amino)methyl)cyclohexyl)-2-oxo-1,2-dihydropyrimidin-4-yl)piperazine-1-carboxamide hydrochloride salt], the minimal inhibitory concentration (MIC) in the experiment on S. aureus (Sa) was less than 8 µg/mL; in the experiment on E. coli (Ec) it was less than 8 µg/mL; with P. aeruginosa (Pa), more than 32 µg/mL; in the experiment on A. baumannii (Ab), more than 32 µg/mL; in the experiment with E. faecalis (Ef), 8 to 32 µg/mL. The IC50 with E. coli S30 extract was less than 500 nM; in experiment [1], not below 1000 nM.
Consider `CC(C)(N)C(=O)N1CCN(C(=O)Nc2ccn(C3CCC(CN4CCC5(N)CC5C4)CC3)c(=O)n2)CC1` (stereo not shown) [Compound 45, 4-(2-Amino-2-methylpropanoyl)-N-(1-(4-((6-amino-3-azabicyclo[4.1.0]heptan-3-yl)methyl)cyclohexyl)-2-oxo-1,2-dihydropyrimidin-4-yl)piperazine-1-carboxamide hydrochloride salt], for which the minimum inhibitory concentration (MIC) is less than 8 µg/mL with S. aureus (Sa); less than 8 µg/mL in the experiment on E. coli (Ec); more than 32 µg/mL in the experiment with P. aeruginosa (Pa); more than 32 µg/mL in the experiment with A. baumannii (Ab); less than 8 µg/mL in the experiment on E. faecalis (Ef). Further, the results for the IC50 (in the experiment on E. coli S30 extract; in experiment [1]) were less than 500 nM and not below 1000 nM, respectively.
Regarding `CC(C)(N)C(=O)N1CCN(C(=O)Nc2ccn(C3CCC(CN4CC[C@@H](CN)C4)CC3)c(=O)n2)CC1` (stereo partly drawn) [Compound 46, (S)-4-(2-Amino-2-methylpropanoyl)-N-(1-(4-((3-(aminomethyl)pyrrolidin-1-yl)methyl)cyclohexyl)-2-oxo-1,2-dihydropyrimidin-4-yl)piperazine-1-carboxamide hydrochloride salt], the minimum inhibitory concentration (MIC) in the experiment with S. aureus (Sa) is less than 8 µg/mL; with E. coli (Ec) it was less than 8 µg/mL; in the experiment on P. aeruginosa (Pa), more than 32 µg/mL; with A. baumannii (Ab), more than 32 µg/mL; in the experiment with E. faecalis (Ef), more than 32 µg/mL. The IC50 was less than 500 nM with E. coli S30 extract and not below 1000 nM in experiment [1].
Regarding `CC(C)(N)C(=O)N1CCN(C(=O)Nc2ccn(C3CCC(CN4CC[C@H](CN)C4)CC3)c(=O)n2)CC1` (stereo partly drawn) [Compound 47, (R)-4-(2-Amino-2-methylpropanoyl)-N-(1-(4-((3-(aminomethyl)pyrrolidin-1-yl)methyl)cyclohexyl)-2-oxo-1,2-dihydropyrimidin-4-yl)piperazine-1-carboxamide Hydrochloride], the minimal inhibitory concentration (MIC) in the experiment on S. aureus (Sa) is less than 8 µg/mL; in the experiment with E. coli (Ec), less than 8 µg/mL; in the experiment with P. aeruginosa (Pa), more than 32 µg/mL; with A. baumannii (Ab) it was more than 32 µg/mL; in the experiment with E. faecalis (Ef), more than 32 µg/mL. Further, the IC50 is less than 500 nM in the experiment on E. coli S30 extract and not below 1000 nM in experiment [1].
